The results in this text go back to ChEMBL document CHEMBL1201862, “PubChem BioAssay data set” (2004).

A word on the IC50: it is the concentration at which inhibition is half-maximal. The EC50 is the concentration giving half of the maximal effect. The term AC50 denotes the midpoint of the concentration-response curve, whichever way the signal moves. Usually CC50 stands for the concentration giving 50% cytotoxicity.

Calls of active or inactive are those of the source.

For one experiment, the target named is T1, Caspase-3 (Homo sapiens, UniProt P42574).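 Note: Dose-response selectivity test against caspase-3 for candidate inhibitors of sentrin-specific proteases (SENPs).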
T1 sequence (P42574 whole entry): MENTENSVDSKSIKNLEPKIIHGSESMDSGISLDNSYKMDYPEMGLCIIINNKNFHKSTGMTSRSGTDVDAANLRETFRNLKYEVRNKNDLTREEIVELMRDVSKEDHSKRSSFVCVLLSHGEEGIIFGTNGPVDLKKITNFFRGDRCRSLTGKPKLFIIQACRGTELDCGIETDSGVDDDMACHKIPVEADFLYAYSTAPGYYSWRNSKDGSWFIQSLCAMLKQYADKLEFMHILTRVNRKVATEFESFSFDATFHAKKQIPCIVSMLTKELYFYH
Type of experiment: functional.

The target of experiment [1] is T2, Sentrin-specific protease 8 (Homo sapiens, UniProt Q96LD8).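 Note: luminescence read-out of SENP8 inhibition, dose-response confirmation following an ultra-high-throughput screen.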
T2 sequence (Q96LD8 whole entry): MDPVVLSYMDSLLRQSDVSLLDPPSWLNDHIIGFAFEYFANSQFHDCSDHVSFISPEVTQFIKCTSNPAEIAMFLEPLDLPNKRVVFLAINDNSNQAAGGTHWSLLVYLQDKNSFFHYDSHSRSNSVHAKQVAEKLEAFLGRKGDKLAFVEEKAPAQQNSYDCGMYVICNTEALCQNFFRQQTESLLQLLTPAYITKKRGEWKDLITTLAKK
It counts as functional.

Experiment [2] has as its target T3, Sentrin-specific protease 6 (Homo sapiens, UniProt Q9GZR1).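 Note: Luminescence-based dose-response confirmatory assay of SENP6 inhibition, following up an ultra-high-throughput screen.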
T3 sequence (Q9GZR1 whole entry): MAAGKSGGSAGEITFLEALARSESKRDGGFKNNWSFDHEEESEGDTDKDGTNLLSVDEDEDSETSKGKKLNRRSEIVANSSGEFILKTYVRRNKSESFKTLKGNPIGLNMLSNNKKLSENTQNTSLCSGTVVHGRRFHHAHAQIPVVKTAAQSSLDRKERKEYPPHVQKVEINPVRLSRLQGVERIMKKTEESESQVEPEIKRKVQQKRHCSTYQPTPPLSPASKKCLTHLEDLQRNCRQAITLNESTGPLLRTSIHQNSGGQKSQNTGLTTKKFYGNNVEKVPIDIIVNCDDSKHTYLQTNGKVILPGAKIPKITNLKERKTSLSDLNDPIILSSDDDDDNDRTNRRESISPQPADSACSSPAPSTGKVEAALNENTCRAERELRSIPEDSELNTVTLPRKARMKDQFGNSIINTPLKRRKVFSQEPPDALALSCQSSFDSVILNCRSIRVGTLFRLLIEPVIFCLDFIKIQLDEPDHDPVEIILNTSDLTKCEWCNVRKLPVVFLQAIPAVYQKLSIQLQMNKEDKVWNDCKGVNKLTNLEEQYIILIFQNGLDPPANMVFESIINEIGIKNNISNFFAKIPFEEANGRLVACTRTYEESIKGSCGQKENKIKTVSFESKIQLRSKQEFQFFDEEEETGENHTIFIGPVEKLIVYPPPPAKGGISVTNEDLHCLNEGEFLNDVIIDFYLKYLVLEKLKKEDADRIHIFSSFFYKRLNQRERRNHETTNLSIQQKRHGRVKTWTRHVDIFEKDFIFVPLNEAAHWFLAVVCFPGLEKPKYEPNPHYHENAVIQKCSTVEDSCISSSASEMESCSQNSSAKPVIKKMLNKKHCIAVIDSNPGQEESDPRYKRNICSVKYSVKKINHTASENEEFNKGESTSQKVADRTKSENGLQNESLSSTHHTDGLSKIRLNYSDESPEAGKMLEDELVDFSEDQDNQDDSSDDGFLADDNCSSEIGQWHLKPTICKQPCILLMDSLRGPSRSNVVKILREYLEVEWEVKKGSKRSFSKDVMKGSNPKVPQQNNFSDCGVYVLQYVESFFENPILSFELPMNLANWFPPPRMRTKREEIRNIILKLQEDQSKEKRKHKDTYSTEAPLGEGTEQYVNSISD
It counts as functional.

Another experiment has as its target T4, Protein skinhead-1 (Caenorhabditis elegans, UniProt P34707).
T4 sequence (P34707 whole entry): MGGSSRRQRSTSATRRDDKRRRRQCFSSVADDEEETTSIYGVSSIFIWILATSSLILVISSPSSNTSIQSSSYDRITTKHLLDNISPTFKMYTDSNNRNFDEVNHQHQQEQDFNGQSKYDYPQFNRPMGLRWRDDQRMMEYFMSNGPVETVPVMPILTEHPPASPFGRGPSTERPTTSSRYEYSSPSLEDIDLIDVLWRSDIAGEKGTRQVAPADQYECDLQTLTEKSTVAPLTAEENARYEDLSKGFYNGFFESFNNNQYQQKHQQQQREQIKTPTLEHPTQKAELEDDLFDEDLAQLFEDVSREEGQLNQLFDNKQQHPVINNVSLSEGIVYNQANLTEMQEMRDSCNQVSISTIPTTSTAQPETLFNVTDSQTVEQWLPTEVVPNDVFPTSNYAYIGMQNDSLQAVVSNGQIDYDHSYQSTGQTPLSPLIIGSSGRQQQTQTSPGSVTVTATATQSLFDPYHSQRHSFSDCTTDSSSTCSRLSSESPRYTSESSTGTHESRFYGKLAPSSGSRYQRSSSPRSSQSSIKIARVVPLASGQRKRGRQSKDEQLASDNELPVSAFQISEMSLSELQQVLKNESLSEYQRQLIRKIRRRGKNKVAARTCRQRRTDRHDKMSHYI
It counts as functional.

Experiment [3] has as its target T5, Sentrin-specific protease 7 (Homo sapiens, UniProt Q9BQF6).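 Note: Luminescence-based dose-response confirmation of ultra-high-throughput screening hits, measuring inhibition of SENP7.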
T5 sequence (Q9BQF6 whole entry): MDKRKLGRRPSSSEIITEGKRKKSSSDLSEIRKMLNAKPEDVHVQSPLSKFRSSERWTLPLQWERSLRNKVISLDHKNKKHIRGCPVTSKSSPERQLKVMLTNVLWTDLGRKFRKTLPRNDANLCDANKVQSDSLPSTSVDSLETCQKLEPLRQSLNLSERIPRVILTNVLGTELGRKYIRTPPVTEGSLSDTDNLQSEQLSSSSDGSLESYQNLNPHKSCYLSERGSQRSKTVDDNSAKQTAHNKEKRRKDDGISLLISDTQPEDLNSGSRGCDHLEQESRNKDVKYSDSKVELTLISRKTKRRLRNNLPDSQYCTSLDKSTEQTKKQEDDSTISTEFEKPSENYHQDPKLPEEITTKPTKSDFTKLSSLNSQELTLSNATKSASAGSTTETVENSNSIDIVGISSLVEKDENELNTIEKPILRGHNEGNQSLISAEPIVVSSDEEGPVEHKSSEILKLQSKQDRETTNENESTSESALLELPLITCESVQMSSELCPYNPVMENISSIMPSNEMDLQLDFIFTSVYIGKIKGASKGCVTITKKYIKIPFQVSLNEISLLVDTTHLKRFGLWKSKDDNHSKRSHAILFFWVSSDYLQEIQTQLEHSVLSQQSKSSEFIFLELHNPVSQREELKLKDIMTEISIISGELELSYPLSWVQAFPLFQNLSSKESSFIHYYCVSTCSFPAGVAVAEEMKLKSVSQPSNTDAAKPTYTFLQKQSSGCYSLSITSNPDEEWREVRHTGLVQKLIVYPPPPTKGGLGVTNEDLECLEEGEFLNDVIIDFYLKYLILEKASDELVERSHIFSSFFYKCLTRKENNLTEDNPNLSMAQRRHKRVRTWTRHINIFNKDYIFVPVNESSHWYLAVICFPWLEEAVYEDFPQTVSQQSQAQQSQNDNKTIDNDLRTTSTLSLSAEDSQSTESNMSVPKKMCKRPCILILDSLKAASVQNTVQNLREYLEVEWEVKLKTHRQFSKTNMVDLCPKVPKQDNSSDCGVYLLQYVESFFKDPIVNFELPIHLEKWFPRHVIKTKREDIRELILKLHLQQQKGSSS
Type of experiment: functional.

Experiment [4] concerns the target T6, Serine/threonine-protein phosphatase (Candida dubliniensis (strain CD36 / CBS 7987 / NCPF 3949 / NRRLY-17841) (Yeast), UniProt B9W6M3).
T6 sequence (B9W6M3 whole entry): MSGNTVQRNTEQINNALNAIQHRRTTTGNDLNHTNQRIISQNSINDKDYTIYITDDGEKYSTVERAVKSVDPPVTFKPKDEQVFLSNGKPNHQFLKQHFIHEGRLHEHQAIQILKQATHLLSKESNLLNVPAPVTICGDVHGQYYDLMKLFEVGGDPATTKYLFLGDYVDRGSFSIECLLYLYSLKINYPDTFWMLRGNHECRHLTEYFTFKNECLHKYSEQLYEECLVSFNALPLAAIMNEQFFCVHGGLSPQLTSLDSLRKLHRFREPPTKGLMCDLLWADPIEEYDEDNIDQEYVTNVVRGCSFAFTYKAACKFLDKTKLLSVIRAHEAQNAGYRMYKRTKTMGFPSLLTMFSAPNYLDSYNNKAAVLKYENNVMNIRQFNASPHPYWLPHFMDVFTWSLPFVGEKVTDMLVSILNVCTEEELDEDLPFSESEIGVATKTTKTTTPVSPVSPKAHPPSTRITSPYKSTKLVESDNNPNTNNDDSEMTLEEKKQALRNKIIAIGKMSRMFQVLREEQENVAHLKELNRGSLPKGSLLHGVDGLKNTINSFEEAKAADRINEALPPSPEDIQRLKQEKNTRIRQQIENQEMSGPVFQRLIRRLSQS
The experiment is described as follows: blockers of CaCl2-induced CDRE-lacZ signaling – S. cerevisiae, luminescence, secondary, dose response (AID 2388).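 Note: yeast reporter cells carrying a calcineurin-responsive lacZ construct stimulated with calcium chloride; luminescent beta-galactosidase reporter signal in whole cells rather than isolated phosphatase activity; potency for inhibition where a drop in reporter signal means calcineurin blockade.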 Type of experiment: functional, cell-based.

Experiment [5] is described as follows: fluconazole-exposed Candida albicans growth modulators – fluorescence, retest, confirmation (AID 2467). Type of experiment: functional, cell-based.
Experiment [6] addresses ATP-dependent molecular chaperone HSP82 (Candida albicans (strain WO-1) (Yeast), UniProt C4YTQ8). The experiment is described as follows: steroid-induced GRE reporter decrease in yeast – S. cerevisiae, luminescence, Hsp90 inhibitor project, dose response (AID 2400).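 Note: beta-galactosidase luminescence from glucocorticoid response element reporter as proxy for Hsp90 function; inhibitor potency where signal loss means Hsp90 inhibition.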 Type of experiment: functional, cell-based.
The target in experiment [7] is T7, DNA repair protein RAD52 homolog (Homo sapiens, UniProt P43351).
T7 sequence (P43351 whole entry): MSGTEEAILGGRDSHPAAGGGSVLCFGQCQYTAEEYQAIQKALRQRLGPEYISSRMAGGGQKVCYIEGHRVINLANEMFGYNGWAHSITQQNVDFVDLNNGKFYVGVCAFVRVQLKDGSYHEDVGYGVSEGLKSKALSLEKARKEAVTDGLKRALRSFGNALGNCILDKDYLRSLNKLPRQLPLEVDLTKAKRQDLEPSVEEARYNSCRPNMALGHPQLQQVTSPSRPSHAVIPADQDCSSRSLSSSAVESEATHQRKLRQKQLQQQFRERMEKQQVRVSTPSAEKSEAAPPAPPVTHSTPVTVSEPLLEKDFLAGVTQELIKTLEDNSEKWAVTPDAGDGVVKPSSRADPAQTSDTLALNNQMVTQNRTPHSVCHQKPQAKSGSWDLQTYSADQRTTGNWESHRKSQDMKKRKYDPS
It counts as functional, biochemical.

Experiment [8] can be described thus: NIH-3T3 fibroblast cytotoxicity, dose response, cytotoxicity control, cell-based, fluorescence, Alamar Blue, secondary assay (AID 2327).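 Note: NIH-3T3 mouse fibroblasts cultured with fluconazole at 8 µg/mL.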 It counts as functional. For orientation: Resazurin is reduced to fluorescent resorufin, in cell work by metabolically active cells.
In another experiment the test system is Streptococcus. The experiment is described as follows: GAS UMAA2166 growth inhibition – luminescence, BacTiterGlo, counter-screen for streptokinase expression inhibitor project, dose response (AID 1915).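 Note: potency for reduction of bacterial viability or growth.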 Type of experiment: functional, organism-based.
For experiment [9], the target named is Heat shock protein HSP 90-alpha (Homo sapiens, UniProt P07900). Type of experiment: functional, organism-based.
Another experiment deals with T8, Streptokinase A (Streptococcus pyogenes serotype M1, UniProt P10520).
T8 sequence (P10520 whole entry): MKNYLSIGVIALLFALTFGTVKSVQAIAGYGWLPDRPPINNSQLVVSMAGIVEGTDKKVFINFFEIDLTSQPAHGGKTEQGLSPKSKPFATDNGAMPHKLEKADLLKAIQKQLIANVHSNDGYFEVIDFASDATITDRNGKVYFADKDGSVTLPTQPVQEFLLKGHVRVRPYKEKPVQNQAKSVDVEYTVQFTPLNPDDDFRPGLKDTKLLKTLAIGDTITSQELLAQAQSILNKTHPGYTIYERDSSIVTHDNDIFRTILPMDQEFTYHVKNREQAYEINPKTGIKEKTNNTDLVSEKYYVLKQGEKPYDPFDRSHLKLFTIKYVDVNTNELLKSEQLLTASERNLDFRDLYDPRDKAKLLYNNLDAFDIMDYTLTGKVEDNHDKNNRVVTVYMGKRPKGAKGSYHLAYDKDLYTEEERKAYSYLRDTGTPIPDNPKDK
The experiment is described as follows: viability-normalized secreted streptokinase activity reduction – plasminogen activation absorbance, OD405, dose response (AID 1914).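 Note: secreted streptokinase activity via plasminogen activation per viability signal from cell pellet.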 It counts as functional, Streptococcus pyogenes M1 GAS.

The subject of experiment [10] is Streptococcus sp. 'group A'. In words: Streptococcus pyogenes SK(-)GAS viability under kanamycin – luminescence, BacTiterGlo, confirmation, counter-screen for streptokinase expression inhibitor project, dose response (AID 1900). It counts as functional, organism-based. For orientation: A counterscreen serves to expose hits that act by an unwanted route or on another target.

The next experiment relates to Vero. The experiment is described as follows: viability of Vero cells under compound – cytotoxicity control for flavivirus capping enzyme inhibitors (AID 588742). It counts as functional. The note with it: Chlorocebus sabaeus.

Sequence of ATP-dependent molecular chaperone HSP82 (C4YTQ8 whole entry): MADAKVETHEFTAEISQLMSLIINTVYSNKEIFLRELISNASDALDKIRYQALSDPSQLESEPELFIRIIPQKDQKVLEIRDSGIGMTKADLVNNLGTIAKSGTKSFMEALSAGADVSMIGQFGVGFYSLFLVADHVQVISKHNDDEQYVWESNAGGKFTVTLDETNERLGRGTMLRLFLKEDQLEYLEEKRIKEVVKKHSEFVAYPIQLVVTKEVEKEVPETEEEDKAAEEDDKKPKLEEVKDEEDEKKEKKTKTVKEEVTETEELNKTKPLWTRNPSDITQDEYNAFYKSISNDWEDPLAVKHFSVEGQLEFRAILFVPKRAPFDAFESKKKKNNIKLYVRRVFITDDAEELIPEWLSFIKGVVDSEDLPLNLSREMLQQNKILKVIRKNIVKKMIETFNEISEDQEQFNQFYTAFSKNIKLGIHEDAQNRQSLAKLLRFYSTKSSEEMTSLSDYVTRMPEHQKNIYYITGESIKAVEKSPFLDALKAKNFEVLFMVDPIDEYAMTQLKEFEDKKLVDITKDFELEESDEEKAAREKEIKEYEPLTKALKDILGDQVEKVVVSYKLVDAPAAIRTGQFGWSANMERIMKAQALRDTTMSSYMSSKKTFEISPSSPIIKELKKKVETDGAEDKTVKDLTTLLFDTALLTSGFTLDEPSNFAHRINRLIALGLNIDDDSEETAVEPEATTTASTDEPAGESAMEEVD

Take `c1ccc(CCNc2ncnc3c2cnn3-c2ccccc2)cc1`: the IC50 was 22.5 µM (active) on Caspase-3; 22.9 µM (active) in experiment [1]; 19.6 µM (active) in experiment [2]; > 100 µM (inactive) at Protein skinhead-1; 7.14 µM (active) in [3].
For the compound `O=C(O)c1ccc(COc2ccccc2[N+](=O)[O-])o1`, the IC50 on Caspase-3 was > 100 µM (inactive); in [1], 31.3 µM (active); in [2], 35.6 µM (active); in [3] it was 10.5 µM (active).
Regarding `CC(C)N1CCc2c(sc(NC(=O)c3nc4ccccc4s3)c2C(N)=O)C1`, the EC50 in experiment [4] was > 180 µM (inactive); in experiment [5], 491 nM (active); in experiment [6], 51.8 µM (active); in [8], > 150 µM (inactive). Also, the AC50 in [7] was 9.55 µM (active).
On to `[O-][n+]1cccc2c(Br)cc(Br)c(O)c21`, for which the EC50 was > 180 µM (inactive) in experiment [4]; 18.7 µM (active) with Streptococcus; > 150 µM (not active) at Streptokinase A; 651 nM (active) in experiment [5]; 865 nM (active) in experiment [10]; > 160 µM (inactive) in experiment [6]. The EC50 in experiment [8] was > 150 µM (inconclusive). In addition, the AC50 in experiment [9] was 3.15 µM (active). In addition, the CC50 in the experiment on Vero is > 40 µM (active).
For `O=C(N/N=C/C(Cl)=C\c1ccccc1)c1cccs1`, the IC50 is 28.7 µM (active) on Caspase-3, > 100 µM (inactive) in [1], > 100 µM (inactive) in experiment [2] and 5.83 µM (active) in experiment [3].
